From PubChem BioAssay AID330 (DTP/NCI, 2004) come the findings set out here.

The structures appear in SMILES notation. Where “and” joins values, the source holds several entries; their conditions need not be identical. Equal values may be shown once. Inconclusive results and toxic doses are left out.

The assay relates to P388 leukemia ip, CD2F1 mice, survival T/C. The experiment in a line: NCI In Vivo Anticancer Drug Screen. Data for tumor model P388 Leukemia (intraperitoneal) in CD2F1 (CDF1) mice. The note with it: endpoint: median survival time, higher = longer survival. In short, it runs like this:
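Mice carrying the transplanted tumor received test compound or vehicle. Survival was recorded in each group, and the value is the treated-group measurement divided by that of the vehicle-treated control group.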

[1] abbreviates: dose: 100.0 mg/kg/injection, schedule: Q04DX002 (ip), vehicle: saline with Tween-80.
Setting [2] is: dose: 200.0 mg/kg/injection, schedule: Q04DX002 (ip), vehicle: saline with Tween-80.
Where [3] appears, read: dose: 50.0 mg/kg/injection, schedule: Q01DX009 (ip), vehicle: saline.
Setting [4] is: dose: 60.0 mg/kg/injection, schedule: Q01DX005 (ip), vehicle: saline.
Where [5] appears, read: dose: 120.0 mg/kg/injection, schedule: Q01DX005 (ip), vehicle: saline.
Where [6] appears, read: dose: 60.0 mg/kg/injection, schedule: Q01DX005 (ip), vehicle: saline with Tween-80.
Setting [7] is: dose: 120.0 mg/kg/injection, schedule: Q01DX005 (ip), vehicle: saline with Tween-80.
[8] abbreviates: dose: 50.0 mg/kg/injection, schedule: Q01DX009 (ip), vehicle: saline with Tween-80.
[9] abbreviates: dose: 100.0 mg/kg/injection, schedule: Q01DX009 (ip), vehicle: saline with Tween-80.
The mark [10] stands for this setting: dose: 200.0 mg/kg/injection, schedule: Q01DX009 (ip), vehicle: saline with Tween-80.

On to `O=C(O)C[N-]CC[N-]CC(=O)O.[Cl][Pt+2][Cl]`, for which the T/C (dose: 6.25 mg/kg/injection, schedule: Q04DX002 (ip), vehicle: saline with Tween-80) is 108 % of control; the T/C (dose: 12.5 mg/kg/injection, schedule: Q04DX002 (ip), vehicle: saline with Tween-80) was 103 % of control; the T/C (dose: 25.0 mg/kg/injection, schedule: Q04DX002 (ip), vehicle: saline with Tween-80) is 113 % of control; the T/C (dose: 50.0 mg/kg/injection, schedule: Q04DX002 (ip), vehicle: saline with Tween-80) was 109 % of control; the T/C under setting [1] is 120 % of control; the T/C under setting [2] is 102 % of control.

Regarding `CN=C(C)Nc1ccccc1OC`, the T/C by setting is: (dose: 12.5 mg/kg/injection, schedule: Q01DX009 (ip), vehicle: saline) 111 % of control; (dose: 25.0 mg/kg/injection, schedule: Q01DX009 (ip), vehicle: saline) 114 % of control; under setting [3], 113 % of control and 97 % of control.

On to `CC(=O)OC(C(=O)O)N1C(=O)C2C3C=CC(C2C1=O)C1C2C(=O)N(C(OC(C)=O)C(=O)O)C(=O)C2C31` (stereo not given), for which the T/C reads like this: (dose: 25.0 mg/kg/injection, schedule: Q01DX009 (ip), vehicle: water) 103 % of control; (dose: 50.0 mg/kg/injection, schedule: Q01DX009 (ip), vehicle: water) 110 % of control; (dose: 100.0 mg/kg/injection, schedule: Q01DX009 (ip), vehicle: water) 110 % of control and 113 % of control and 123 % of control.

For `CN(N=O)C1=NC2(CCCCC2)P(=O)(NNc2ncccn2)O1` (stereo not given), the T/C by setting is: under setting [4], 101 % of control; under setting [5], 102 % of control.

On to `CN(C)C1C(=O)C(C(=O)NCN2CCOB(c3ccccc3)OCC2)=C(O)C2(O)C(O)=C3C(=O)C4C(O)=CC=CC4C(C)(O)C3CC12` (stereo not given), for which the T/C reads like this: (dose: 12.5 mg/kg/injection, schedule: Q04DX002 (ip), vehicle: saline) 101 % of control; (dose: 25.0 mg/kg/injection, schedule: Q04DX002 (ip), vehicle: saline) 105 % of control; (dose: 50.0 mg/kg/injection, schedule: Q04DX002 (ip), vehicle: saline) 108 % of control.

With `Cc1ccc2c(c1)C(=O)c1cc3c(cc1C2=O)OCO3`, the T/C is 87 % of control under setting [6]; 91 % of control under setting [7]; 89 % of control and 91 % of control (dose: 240.0 mg/kg/injection, schedule: Q01DX005 (ip), vehicle: saline with Tween-80).

As to `CSc1nnc(C2CCC(=O)N2Cc2ccccc2)o1` (stereo not given), the T/C under setting [4] is 105 % of control; the T/C under setting [5] was 102 % of control; the T/C (dose: 240.0 mg/kg/injection, schedule: Q01DX005 (ip), vehicle: saline) was 104 % of control.

Take `COc1cc2c[n+](C)c3c(c2cc1OC)Cc1c-3ccc(O)c1OC`: the T/C (dose: 100.0 mg/kg/injection, schedule: Q01DX001 (ip), vehicle: Klucel (hydroxypropylcellulose) (HPC)) is 116 % of control.

For the compound `COC(=O)C1CC=CCC1C(=O)OC` (stereo not given), the T/C is, setting by setting: under setting [1], 107 % of control; under setting [2], 106 % of control; (dose: 400.0 mg/kg/injection, schedule: Q04DX002 (ip), vehicle: saline with Tween-80) 100 % of control.

On to `Cc1cc(O)c2c(c1)C(=O)C(c1c(O)c3c(C)cccc3oc1=O)=C(c1c(O)c3c(C)cccc3oc1=O)C2=O`, for which the T/C by setting is: (dose: 14.0 mg/kg/injection, schedule: Q01DX005 (ip), vehicle: Klucel (hydroxypropylcellulose) (HPC)) 92 % of control; (dose: 28.0 mg/kg/injection, schedule: Q01DX005 (ip), vehicle: Klucel (hydroxypropylcellulose) (HPC)) 91 % of control; (dose: 56.0 mg/kg/injection, schedule: Q01DX005 (ip), vehicle: Klucel (hydroxypropylcellulose) (HPC)) 89 % of control; (dose: 112.0 mg/kg/injection, schedule: Q01DX005 (ip), vehicle: Klucel (hydroxypropylcellulose) (HPC)) 89 % of control.

`CN1C(=O)C2CCC(=O)N2C(=S)N(C)C1=S` (stereo not given): the T/C is 106 % of control under setting [6] and 104 % of control under setting [7].

With `COC(=O)C1=C(C(=O)OC)C2(C)NC1(C)c1c(C)ccc(C)c12`, the T/C is 103 % of control (dose: 42.5 mg/kg/injection, schedule: Q01DX001 (ip), vehicle: saline with Tween-80); 94 % of control (dose: 85.0 mg/kg/injection, schedule: Q01DX001 (ip), vehicle: saline with Tween-80); 89 % of control (dose: 170.0 mg/kg/injection, schedule: Q01DX001 (ip), vehicle: saline with Tween-80).

For the compound `CCN(CC)Cc1cc(N=Nc2ccc3c(c2)c2ccccc2n3CC)c2ccccc2c1O`, the T/C under setting [8] is 86 % of control, the T/C under setting [9] is 93 % of control and the T/C under setting [10] is 93 % of control.

As for `O=[N+]([O-])c1ccc(CN2CCN(c3nccs3)CC2)cc1`, the T/C is, setting by setting: (dose: 50.0 mg/kg/injection, schedule: Q01DX009 (ip), vehicle: Klucel (hydroxypropylcellulose) (HPC)) 101 % of control; (dose: 100.0 mg/kg/injection, schedule: Q01DX009 (ip), vehicle: Klucel (hydroxypropylcellulose) (HPC)) 105 % of control; (dose: 200.0 mg/kg/injection, schedule: Q01DX009 (ip), vehicle: Klucel (hydroxypropylcellulose) (HPC)) 105 % of control.

As for `Cc1cc(=O)[nH]c2nc3ccccc3n12`, the T/C under setting [8] is 95 % of control; the T/C under setting [9] is 96 % of control; the T/C under setting [10] is 100 % of control; the T/C (dose: 400.0 mg/kg/injection, schedule: Q01DX009 (ip), vehicle: saline with Tween-80) was 104 % of control.

Take `COc1ccc(/C=N/NC(=O)CNC(=O)c2ccc(Cl)c(Cl)c2)cc1`: the T/C (dose: 3.13 mg/kg/injection, schedule: Q01DX009 (ip), vehicle: saline with Tween-80) is 100 % of control; the T/C (dose: 6.25 mg/kg/injection, schedule: Q01DX009 (ip), vehicle: saline with Tween-80) is 108 % of control; the T/C (dose: 12.5 mg/kg/injection, schedule: Q01DX009 (ip), vehicle: saline with Tween-80) is 107 % of control.

Regarding `N/C(=N\OC1(c2ccccc2)OC(=O)C(=O)/C1=C(/O)c1ccccc1)c1ccccc1` (stereo not given), the T/C was 102 % of control under setting [6] and 100 % of control under setting [7].

As for `CCC[CH2][Sn]1([CH2]CCC)[O]CC[S]1`, the T/C (dose: 3.12 mg/kg/injection, schedule: Q01DX009 (ip), vehicle: Klucel (hydroxypropylcellulose) (HPC)) is 116 % of control.

Turning to `CS(=O)(=O)c1nc(N)c2nnn(C3OC(CO)C(O)C3O)c2n1` (stereo not given), the T/C (dose: 12.5 mg/kg/injection, schedule: Q01DX001 (ip), vehicle: saline) was 109 % of control; the T/C (dose: 25.0 mg/kg/injection, schedule: Q01DX001 (ip), vehicle: saline) was 100 % of control; the T/C (dose: 50.0 mg/kg/injection, schedule: Q01DX001 (ip), vehicle: saline) was 118 % of control; the T/C (dose: 100.0 mg/kg/injection, schedule: Q01DX001 (ip), vehicle: saline) is 109 % of control.

In the case of `COc1cc(OC)c(NC(=S)Nc2cc(Cl)c(OC)cc2OC)cc1Cl`, the T/C runs as follows: under setting [8], 106 % of control; under setting [9], 102 % of control; under setting [10], 103 % of control.

On to `CCCOc1cc2c(cc1C(C)c1ccc(OC)c(C)c1)OCO2` (stereo not given), for which the T/C (dose: 60.0 mg/kg/injection, schedule: Q01DX005 (ip), vehicle: saline + Tween-80 + alcohol) was 97 % of control; the T/C (dose: 120.0 mg/kg/injection, schedule: Q01DX005 (ip), vehicle: saline + Tween-80 + alcohol) is 109 % of control; the T/C (dose: 240.0 mg/kg/injection, schedule: Q01DX005 (ip), vehicle: saline + Tween-80 + alcohol) was 108 % of control.

Regarding `Fc1ccc(C2SCCCS2)cc1`, the T/C is 92 % of control under setting [3]; 92 % of control (dose: 100.0 mg/kg/injection, schedule: Q01DX009 (ip), vehicle: saline); 101 % of control (dose: 200.0 mg/kg/injection, schedule: Q01DX009 (ip), vehicle: saline).
